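Method: 48-hour compound exposure of cells in 96-well plates, five concentrations, linear interpolation of endpoints. Definition used: TGI = concentration required for complete inhibition of growth.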
What was measured:
Assay in all cases: NCI tumour cell line growth inhibition, 48 h
A498 renal = system: A498 renal
A549 NSCLC = system: A549 NSCLC
ACHN renal = system: ACHN renal
CAKI-1 renal = system: CAKI-1 renal
CCRF-CEM leukemia = system: CCRF-CEM leukemia
COLO 205 colon = system: COLO 205 colon
DLD-1 colon = system: DLD-1 colon
DMS 114 small cell lung = system: DMS 114 small cell lung
DMS 273 small cell lung = system: DMS 273 small cell lung
EKVX NSCLC = system: EKVX NSCLC
HCC-2998 colon = system: HCC-2998 colon
HCT-116 colon = system: HCT-116 colon
HCT-15 colon = system: HCT-15 colon
HL-60(TB) leukemia = system: HL-60(TB) leukemia
HOP-62 NSCLC = system: HOP-62 NSCLC
HOP-92 NSCLC = system: HOP-92 NSCLC
HT29 colon = system: HT29 colon
IGROV1 ovarian = system: IGROV1 ovarian
K-562 leukemia = system: K-562 leukemia
KM12 colon = system: KM12 colon
KM20L2 colon = system: KM20L2 colon
LOX IMVI melanoma = system: LOX IMVI melanoma
LXFL 529 NSCLC = system: LXFL 529 NSCLC
M14 melanoma = system: M14 melanoma
M19-MEL melanoma = system: M19-MEL melanoma
MOLT-4 leukemia = system: MOLT-4 leukemia
NCI-H226 lung = system: NCI-H226 lung
NCI-H23 lung = system: NCI-H23 lung
NCI-H460 lung = system: NCI-H460 lung
NCI-H522 lung = system: NCI-H522 lung
OVCAR-4 ovarian = system: OVCAR-4 ovarian
OVCAR-5 ovarian = system: OVCAR-5 ovarian
OVCAR-8 ovarian = system: OVCAR-8 ovarian
RPMI-8226 leukemia = system: RPMI-8226 leukemia
RXF 393 renal = system: RXF 393 renal
RXF-631 renal = system: RXF-631 renal
SF-268 CNS = system: SF-268 CNS
SF-295 CNS = system: SF-295 CNS
SF-539 CNS = system: SF-539 CNS
SK-MEL-2 melanoma = system: SK-MEL-2 melanoma
SK-MEL-28 melanoma = system: SK-MEL-28 melanoma
SK-MEL-5 melanoma = system: SK-MEL-5 melanoma
SK-OV-3 ovarian = system: SK-OV-3 ovarian
SN12C renal = system: SN12C renal
SNB-19 CNS = system: SNB-19 CNS
SNB-75 CNS = system: SNB-75 CNS
SNB-78 CNS = system: SNB-78 CNS
SR leukemia = system: SR leukemia
SW-620 colon = system: SW-620 colon
TK-10 renal = system: TK-10 renal
U251 CNS = system: U251 CNS
UACC-257 melanoma = system: UACC-257 melanoma
UACC-62 melanoma = system: UACC-62 melanoma
UO-31 renal = system: UO-31 renal
XF 498 CNS = system: XF 498 CNS
786-0 renal = system: 786-0 renal
HOP-18 NSCLC = system: HOP-18 NSCLC
MALME-3M melanoma = system: MALME-3M melanoma
OVCAR-3 ovarian = system: OVCAR-3 ovarian

Measured: TGI

COC(=O)C(Cc1ccc2c(c1)OCO2)(NC(=O)c1ccccc1)P(=O)(OC)OC (stereo not drawn)
not listed: 786-0 renal | HOP-18 NSCLC | MALME-3M melanoma | OVCAR-3 ovarian
> 100 µM: all other assays above

Cc1cc2c(=O)cc(-c3ccncc3)oc2c(C(N)=O)c1C
not listed: A498 renal | CAKI-1 renal | DLD-1 colon | DMS 114 small cell lung | K-562 leukemia | KM12 colon | M14 melanoma | NCI-H522 lung | OVCAR-4 ovarian | RXF-631 renal | SK-MEL-5 melanoma
> 100 µM: all other assays above

Source: PubChem BioAssay (NCI)
